Results reported in PubChem BioAssay AID248 (DTP/NCI, 2004).
Toxic doses and inconclusive results are not listed. Cut-off read from the data, not from the text of the source: active = T/C of 150% or more; inactive = T/C below 125%. Numbered stars: 1 amine (or outer) side, 2 acyl side, 3 side chain; on linkers, the order of the positions; unused ones are H or OH. Square brackets hold non-standard residues; d marks the D form. Peptide text beside a SMILES is read from it. γGlu = O=C(O)[CH](CCC(=O)[*:2])N[*:1]; Hpg = N[CH](C(=O)O)c1ccc(O)cc1

System: L1210 leukemia ip in BDF1 mice, survival T/C
Experiment: NCI In Vivo Anticancer Drug Screen. Data for tumor model L1210 Leukemia (intraperitoneal) in B6D2F1 (BDF1) mice
Settings: endpoint: mean survival time, higher = longer survival
Procedure, shortened: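 Each compound was tested against a transplantable tumor grown in mice. The endpoint was survival, with treated animals benchmarked against vehicle controls as a simple ratio.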

[1] = dose: 12.5 mg/kg/injection, schedule: Q04DX003 (ip), vehicle: saline
[2] = dose: 25.0 mg/kg/injection, schedule: Q04DX003 (ip), vehicle: saline
[3] = dose: 50.0 mg/kg/injection, schedule: Q04DX003 (ip), vehicle: saline
[4] = dose: 50.0 mg/kg/injection, schedule: Q01DX001 (ip), vehicle: saline
[5] = dose: 100.0 mg/kg/injection, schedule: Q01DX001 (ip), vehicle: saline
[6] = dose: 100.0 mg/kg/injection, schedule: Q01DX009 (ip), vehicle: saline with Tween-80
[7] = dose: 200.0 mg/kg/injection, schedule: Q01DX009 (ip), vehicle: saline with Tween-80
[8] = dose: 100.0 mg/kg/injection, schedule: Q01DX009 (ip), vehicle: saline
[9] = dose: 100.0 mg/kg/injection, schedule: Q04DX002 (ip), vehicle: saline with Tween-80
[10] = dose: 200.0 mg/kg/injection, schedule: Q04DX002 (ip), vehicle: saline with Tween-80
[11] = dose: 400.0 mg/kg/injection, schedule: Q04DX002 (ip), vehicle: saline with Tween-80
[12] = dose: 200.0 mg/kg/injection, schedule: Q01DX001 (ip), vehicle: saline
[13] = dose: 400.0 mg/kg/injection, schedule: Q01DX001 (ip), vehicle: saline

Measured: T/C

FC(F)(F)c1ccc2c(c1)N(CCCN1CCN(CCOCCCl)CC1)c1ccccc1S2
inactive: dose: 0.19 mg/kg/injection, schedule: Q01DX009 (ip), vehicle: saline 104 % of control | dose: 0.39 mg/kg/injection, schedule: Q01DX009 (ip), vehicle: saline 94 % of control | dose: 0.78 mg/kg/injection, schedule: Q01DX009 (ip), vehicle: saline 98 % of control | dose: 1.17 mg/kg/injection, schedule: Q04DX003 (ip), vehicle: saline 101 % of control | dose: 1.56 mg/kg/injection, schedule: Q01DX009 (ip), vehicle: saline 107 % of control | dose: 2.34 mg/kg/injection, schedule: Q04DX003 (ip), vehicle: saline 95 % of control | dose: 3.12 mg/kg/injection, schedule: Q01DX009 (ip), vehicle: saline 89 % of control | dose: 4.68 mg/kg/injection, schedule: Q04DX003 (ip), vehicle: saline 98 % of control | dose: 6.25 mg/kg/injection, schedule: Q04DX003 (ip), vehicle: saline 108 % of control | dose: 9.9 mg/kg/injection, schedule: Q01DX001 (ip), vehicle: saline 97 % of control | [1] 119 % of control | dose: 15.0 mg/kg/injection, schedule: Q01DX001 (ip), vehicle: saline 102 % of control | dose: 22.5 mg/kg/injection, schedule: Q01DX001 (ip), vehicle: saline 103 % of control | [2] 122 % of control | [3] 90 % of control

O=C(CCN1CC1)N1CCOCC1
inactive: dose: 100.0 mg/kg/injection, schedule: Q04DX003 (ip), vehicle: saline 108 % of control | dose: 200.0 mg/kg/injection, schedule: Q04DX003 (ip), vehicle: saline 100 % of control | dose: 400.0 mg/kg/injection, schedule: Q04DX003 (ip), vehicle: saline 113 % of control

COc1c(Cl)c(C(Cl)(Cl)Cl)nc2ccccc12
inactive: dose: 50.0 mg/kg/injection, schedule: Q01DX009 (ip), vehicle: Klucel (hydroxypropylcellulose) (HPC) 101 % of control | dose: 100.0 mg/kg/injection, schedule: Q01DX009 (ip), vehicle: Klucel (hydroxypropylcellulose) (HPC) 104 % of control

CN1c2ccc(Br)c[c]2[Sn]([c]2ccccc2)([c]2ccccc2)[c]2cc(Br)ccc21
inactive: dose: 100.0 mg/kg/injection, schedule: Q01DX001 (ip), vehicle: other 91 % of control | dose: 200.0 mg/kg/injection, schedule: Q01DX001 (ip), vehicle: other 96 % of control | dose: 400.0 mg/kg/injection, schedule: Q01DX001 (ip), vehicle: other 96 % of control

COc1ccc(C)c(CN(C)C)c1
inactive: [4] 107 % of control | [5] 101 % of control

O=C(O)/C=C/C(=O)NC1CCCCC1
inactive: [6] 94 % of control | [7] 96 % of control | dose: 400.0 mg/kg/injection, schedule: Q01DX009 (ip), vehicle: saline with Tween-80 98 % of control

Nc1nc(N)c2nc3c(nc2n1)C(=O)N(c1ccc(C(=O)O)cc1)C3
inactive: dose: 12.5 mg/kg/injection, schedule: Q01DX001 (ip), vehicle: saline 102 % of control | dose: 25.0 mg/kg/injection, schedule: Q01DX001 (ip), vehicle: saline 91 % of control | [4] 102 % of control | [8] 90 % of control

CC1CN=C(c2ccc(N)cc2)S1 (stereo not drawn)
inactive: dose: 87.0 mg/kg/injection, schedule: Q04DX003 (ip), vehicle: Klucel (hydroxypropylcellulose) (HPC) 94 % of control | dose: 175.0 mg/kg/injection, schedule: Q04DX003 (ip), vehicle: Klucel (hydroxypropylcellulose) (HPC) 105 % of control

Nc1nc(N)nc(CCN2CCCCC2)n1
inactive: dose: 6.25 mg/kg/injection, schedule: Q01DX001 (ip), vehicle: saline with Tween-80 94 % of control | dose: 12.5 mg/kg/injection, schedule: Q01DX001 (ip), vehicle: saline with Tween-80 102 % of control | dose: 25.0 mg/kg/injection, schedule: Q01DX001 (ip), vehicle: saline with Tween-80 102 % of control

COc1ccc2c(C(=O)N(CCCl)CCCl)cc3cc(OC)c(OC)cc3c2c1
inactive: [2] 116 % of control | [3] 102 % of control

CC(=O)c1ccc[n+](C)c1
inactive: dose: 50.0 mg/kg/injection, schedule: Q01DX009 (ip), vehicle: saline 102 % of control | [8] 100 % of control | dose: 200.0 mg/kg/injection, schedule: Q01DX009 (ip), vehicle: saline 91 % of control

C=C(Cl)CNCC
inactive: dose: 12.5 mg/kg/injection, schedule: Q01DX009 (ip), vehicle: saline with Tween-80 91 % of control | dose: 25.0 mg/kg/injection, schedule: Q01DX009 (ip), vehicle: saline with Tween-80 97 % of control | dose: 50.0 mg/kg/injection, schedule: Q01DX009 (ip), vehicle: saline with Tween-80 119 % of control

CCCCCCCCC(CCCCCCCC)CCc1ccccc1
inactive: dose: 100.0 mg/kg/injection, schedule: Q01DX001 (ip), vehicle: saline + alcohol 101 % of control | dose: 200.0 mg/kg/injection, schedule: Q01DX001 (ip), vehicle: saline + alcohol 100 % of control | dose: 400.0 mg/kg/injection, schedule: Q01DX001 (ip), vehicle: saline + alcohol 97 % of control

CN(C)C(=O)N1CCCCC1
inactive: [9] 101 % of control | [10] 93 % of control | [11] 111 % of control

CCC1NC(C(=O)O)CS1 (stereo not drawn)
inactive: [5] 96 % of control | [12] 100 % of control | [13] 89 % of control

N#CCCN(Cc1cccnc1)CN1C(=O)c2ccccc2C1=O
inactive: [9] 91 % of control | [10] 97 % of control | [11] 102 % of control

CC(C)C(=O)c1ccc([N+](=O)[O-])o1
inactive: [6] 94 % of control | dose: 100.0 mg/kg/injection, schedule: Q04DX003 (ip), vehicle: saline with Tween-80 99 % of control | [7] 96 % of control | dose: 200.0 mg/kg/injection, schedule: Q04DX003 (ip), vehicle: saline with Tween-80 99 % of control | dose: 400.0 mg/kg/injection, schedule: Q04DX003 (ip), vehicle: saline with Tween-80 88 % of control

NC(Cc1cn(Cc2ccccc2)cn1)C(=O)O (stereo not drawn)
inactive: [1] 109 % of control | [2] 89 % of control | [3] 106 % of control

CC(NC(=O)CCC(NC(=O)C(Cc1ccc(O)cc1)NC(=O)CNC(=O)C(C)NC(=O)CCC(NC(=O)C(N)c1ccc(O)cc1)C(=O)O)C(=O)O)C(=O)NCC(=O)NCC(=O)O (stereo not drawn) (H-[Hpg][γGlu]AGY[γGlu]AGG-OH; configuration not given here)
inactive: [5] 97 % of control | [12] 98 % of control | [13] 97 % of control

O=CC1c2ccccc2C(C=O)c2c1ccc1ccccc21 (stereo not drawn)
inactive: dose: 50.0 mg/kg/injection, schedule: Q01DX001 (ip), vehicle: Klucel (hydroxypropylcellulose) (HPC) 93 % of control | dose: 100.0 mg/kg/injection, schedule: Q01DX001 (ip), vehicle: Klucel (hydroxypropylcellulose) (HPC) 91 % of control | dose: 200.0 mg/kg/injection, schedule: Q01DX001 (ip), vehicle: Klucel (hydroxypropylcellulose) (HPC) 100 % of control

CCCCCCCCCCCC[As](=O)(O)O
inactive: dose: 50.0 mg/kg/injection, schedule: Q01DX001 (ip), vehicle: carboxymethylcellulose (CMC) 96 % of control | dose: 100.0 mg/kg/injection, schedule: Q01DX001 (ip), vehicle: carboxymethylcellulose (CMC) 93 % of control
